According to ChEMBL document CHEMBL4420076, “Amylin and calcitonin receptor agonist” (2017):
pEC50, pIC50: −log10 of the molar value. Numbered stars: 1 amine (or outer) side, 2 acyl side, 3 side chain; on linkers, the order of the positions; unused ones are H or OH. Side chains are listed from the residue outwards. Peptide text beside a SMILES is read from it. * marks the point of attachment. C20 diacid = O=C(O)CCCCCCCCCCCCCCCCCCC(=O)*; γGlu = O=C(O)[C@H](CCC(=O)[*:2])N[*:1]; C14 diacid = O=C(O)CCCCCCCCCCCCC(=O)*

Columns and labels:
[1] = target: T1, Amylin receptor AMY3; CALCR/RAMP3 (Rattus norvegicus, UniProt P32214+Q9JJ73); experiment: Displacement of [125I]-labeled rat amylin from rat amylin receptor expressed in BHK tkts13 cell membranes co-expressing RAMP3 incubated for 120 mins by scintillation proximity assay
T1 sequence (P32214 whole entry): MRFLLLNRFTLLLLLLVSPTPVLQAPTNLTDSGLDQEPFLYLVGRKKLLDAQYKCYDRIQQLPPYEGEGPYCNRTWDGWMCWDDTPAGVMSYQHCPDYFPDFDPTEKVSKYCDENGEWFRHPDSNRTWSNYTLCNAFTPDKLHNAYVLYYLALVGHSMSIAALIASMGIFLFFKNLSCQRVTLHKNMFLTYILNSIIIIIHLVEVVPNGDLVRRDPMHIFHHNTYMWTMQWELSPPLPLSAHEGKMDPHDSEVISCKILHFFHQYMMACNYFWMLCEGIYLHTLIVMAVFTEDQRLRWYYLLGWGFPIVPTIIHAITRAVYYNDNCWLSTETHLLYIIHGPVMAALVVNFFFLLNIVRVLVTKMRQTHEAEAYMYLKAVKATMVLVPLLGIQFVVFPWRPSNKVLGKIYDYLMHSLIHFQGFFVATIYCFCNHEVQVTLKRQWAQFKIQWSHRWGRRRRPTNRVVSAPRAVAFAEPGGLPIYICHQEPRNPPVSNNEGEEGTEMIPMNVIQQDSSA
T1 sequence (Q9JJ73 whole entry): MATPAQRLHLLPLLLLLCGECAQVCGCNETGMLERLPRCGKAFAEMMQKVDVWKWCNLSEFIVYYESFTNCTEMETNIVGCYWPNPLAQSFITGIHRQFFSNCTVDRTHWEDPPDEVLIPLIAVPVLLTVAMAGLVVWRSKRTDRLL

[2] = Stability in pH 7.5 buffer assessed as lag time for fibril formation at 1 uM by Thioflavin T based fluorescence assay; type: physicochemical; settings: pH 7.5, 1 µM
[3] = Solubility in 100 mM bistrispropane buffer at pH 8.0 incubated for 18 hrs by UPLC analysis; type: physicochemical
[4] = Solubility in 100 mM glycylglycine buffer at pH 4.0 incubated for 18 hrs by UPLC analysis; type: physicochemical
Rattus norvegicus [5] = experiment: Reduction in food intake in Sprague-Dawley rat at 3 nmol/kg measured 0 to 24 hrs post dose relative to control; type: functional; design: scale not given: the % may be the effect or the level left
Calcitonin receptor [6] = target: T2, Calcitonin receptor (Homo sapiens, UniProt P30988); experiment: Agonist activity at human calcitonin receptor expressed in BHK570 cells assessed as increase in intracellular cAMP concentration incubated for 3 hrs in absence of albumin by CRE luciferase reporter gene assay; type: functional, cell-based
T2 sequence (P30988 whole entry): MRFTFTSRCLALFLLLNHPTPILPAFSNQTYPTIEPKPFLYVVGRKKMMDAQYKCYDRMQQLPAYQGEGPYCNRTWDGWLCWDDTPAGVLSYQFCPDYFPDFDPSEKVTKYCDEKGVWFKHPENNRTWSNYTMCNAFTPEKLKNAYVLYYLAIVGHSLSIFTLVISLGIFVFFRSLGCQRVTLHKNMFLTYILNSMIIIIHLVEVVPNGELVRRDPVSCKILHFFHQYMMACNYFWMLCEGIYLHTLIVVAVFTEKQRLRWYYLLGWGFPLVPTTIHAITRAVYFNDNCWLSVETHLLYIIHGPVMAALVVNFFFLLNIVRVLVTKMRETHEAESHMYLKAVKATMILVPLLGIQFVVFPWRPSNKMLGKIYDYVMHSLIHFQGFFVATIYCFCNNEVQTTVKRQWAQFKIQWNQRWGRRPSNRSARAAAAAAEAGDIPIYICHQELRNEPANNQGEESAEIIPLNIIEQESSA

[7] = Solubility in 100 mM bistrispropane buffer at pH 7.5 incubated for 18 hrs by UPLC analysis; type: physicochemical
[8] = Solubility in 100 mM bistrispropane buffer at pH 6.5 incubated for 18 hrs by UPLC analysis; type: physicochemical
[9] = Stability in pH 7.5 buffer assessed as compound recovery at 1 uM by Thioflavin T based fluorescence assay; type: physicochemical; settings: read-out: Drug recovery
Rattus norvegicus [10] = experiment: Reduction in food intake in Sprague-Dawley rat at 3 nmol/kg measured 24 to 48 hrs post dose relative to control; type: functional; design: scale not given: the % may be the effect or the level left
[11] = Solubility in 100 mM glycylglycine buffer at pH 3.0 incubated for 18 hrs by UPLC analysis; type: physicochemical
[12] = target: T3, Amylin receptor AMY3; CALCR/RAMP3 (Homo sapiens, UniProt O60896+P30988); experiment: Displacement of [125I]-labeled rat amylin from human amylin receptor expressed in BHK tkts13 whole cells co-expressing RAMP3 incubated for 60 mins by scintillation proximity assay; type: cell-based
T3 sequence (P30988 whole entry): T2 sequence (P30988 whole entry)
T3 sequence (O60896 whole entry): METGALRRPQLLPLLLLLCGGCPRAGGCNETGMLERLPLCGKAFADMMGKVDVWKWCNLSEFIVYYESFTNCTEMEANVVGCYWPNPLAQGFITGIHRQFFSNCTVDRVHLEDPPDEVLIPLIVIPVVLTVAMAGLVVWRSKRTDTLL

Calcitonin receptor [13] = target: T2, Calcitonin receptor; experiment: Agonist activity at human calcitonin receptor expressed in BHK570 cells assessed as increase in intracellular cAMP concentration incubated for 3 hrs in presence of 10% FBS by CRE luciferase reporter gene assay; type: functional, cell-based
[14] = Solubility in 100 mM bistrispropane buffer at pH 6.0 incubated for 18 hrs by UPLC analysis; type: physicochemical
[15] = target: T3, Amylin receptor AMY3; CALCR/RAMP3; experiment: Agonist activity at human amylin receptor expressed in BHK570 cells co-expressing RAMP3 assessed as increase in intracellular cAMP concentration incubated for 3 hrs in absence of albumin by CRE luciferase reporter gene assay; type: functional, cell-based
[16] = Solubility in 100 mM bistrispropane buffer at pH 7.0 incubated for 18 hrs by UPLC analysis; type: physicochemical
[17] = target: T3, Amylin receptor AMY3; CALCR/RAMP3; experiment: Agonist activity at human amylin receptor expressed in BHK570 cells co-expressing RAMP3 assessed as increase in intracellular cAMP concentration incubated for 3 hrs in presence of 10% FBS by CRE luciferase reporter gene assay; type: functional, cell-based
[18] = Solubility in 100 mM glycylglycine buffer at pH 5.0 incubated for 18 hrs by UPLC analysis; type: physicochemical
Calcitonin receptor [19] = target: T2, Calcitonin receptor; experiment: Displacement of [125I]-labeled human calcitonin from human calcitonin receptor expressed in BHK tkts13 cell membranes incubated for 1 hr by scintillation proximity assay

| SMILES | pIC50 [1] | Time [2] [h] | solubility at 18 h [3] [µM] | solubility at 18 h [4] [µM] | Activity (Rattus norvegicus [5]) [%] | pEC50 (Calcitonin receptor [6]) | solubility at 18 h [7] [µM] | solubility at 18 h [8] [µM] | remaining at 1 µM [9] [%] | Activity (Rattus norvegicus [10]) [%] | solubility at 18 h [11] [µM] | pIC50 [12] | pEC50 (Calcitonin receptor [13]) | solubility at 18 h [14] [µM] | pEC50 [15] | solubility at 18 h [16] [µM] | pEC50 [17] | solubility at 18 h [18] [µM] | pIC50 (Calcitonin receptor [19]) |
| --- | --- | --- | --- | --- | --- | --- | --- | --- | --- | --- | --- | --- | --- | --- | --- | --- | --- | --- | --- |
| CC(C)C[C@H](NC(=O)CNC(=O)[C@H](CO)NC(=O)[C@H](C)NC(=O)COCCOCCNC(=O)COCCOCCNC(=O)CC[C@H](NC(=O)CCCCCCCCCCCCCCCCC(=O)O)C(=O)O)C(=O)N[C@@H](CO)C(=O)N[C@H](C(=O)N[C@@H](C)C(=O)N[C@H](C(=O)N[C@@H](CC(C)C)C(=O)NCC(=O)N[C@@H](CCCNC(=N)N)C(=O)N[C@@H](CC(C)C)C(=O)N[C@@H](CO)C(=O)N[C@@H](CCC(N)=O)C(=O)N[C@@H](CCC(=O)O)C(=O)N[C@@H](CC(C)C)C(=O)N[C@@H](Cc1cnc[nH]1)C(=O)N[C@@H](CCC(=O)O)C(=O)N[C@@H](CC(C)C)C(=O)N[C@@H](CCC(N)=O)C(=O)N[C@H](C(=O)N[C@@H](Cc1ccc(O)cc1)C(=O)N1CCC[C@H]1C(=O)N[C@@H](CCCNC(=N)N)C(=O)N[C@H](C(=O)N[C@@H](CCC(=O)O)C(=O)N[C@H](C(=O)NCC(=O)N[C@@H](CO)C(=O)NCC(=O)N[C@H](C(=O)N[C@@H](Cc1ccc(O)cc1)C(N)=O)[C@@H](C)O)[C@@H](C)O)[C@@H](C)O)[C@@H](C)O)C(C)C)[C@@H](C)O | 9.45 | > 45 | ≥ 200 | ≥ 200 | 0 | 10.66 | ≥ 200 | ≥ 200 | 100 | 0 | ≥ 200 | 9.10 | 10.42 | ≥ 200 | 10.30 | ≥ 200 | 10.10 |  |  |
| CC(C)C[C@H](NC(=O)[C@H](C)NC(=O)[C@H](C)NC(=O)[C@@H](NC(=O)[C@H](CO)NC(=O)[C@H](CC(C)C)NC(=O)[C@H](CCC(=O)O)NC(=O)[C@H](CO)NC(=O)[C@H](C)N)[C@@H](C)O)C(=O)NCC(=O)N[C@@H](CCCNC(=N)N)C(=O)N[C@@H](CC(C)C)C(=O)N[C@@H](CO)C(=O)N[C@@H](C)C(=O)N[C@@H](CCCCNC(=O)CC[C@H](NC(=O)CCCCCCCCCCCCCCCCCCC(=O)O)C(=O)O)C(=O)N[C@@H](CC(C)C)C(=O)N[C@@H](Cc1cnc[nH]1)C(=O)N[C@@H](CCC(=O)O)C(=O)N[C@@H](CC(C)C)C(=O)N[C@@H](C)C(=O)N[C@H](C(=O)N[C@@H](CC(C)C)C(=O)N1CCC[C@H]1C(=O)N[C@@H](CCCNC(=N)N)C(=O)N[C@H](C(=O)N[C@@H](CCC(=O)O)C(=O)N[C@H](C(=O)NCC(=O)N[C@@H](CO)C(=O)NCC(=O)N[C@@H](CO)C(=O)N1CCC[C@H]1C(N)=O)[C@@H](C)O)[C@@H](C)O)[C@@H](C)O (H-ASELSTAALGRLSAK([γGlu-C20 diacid])LHELATLPRTETGSGSP-NH2) | 8.89 | > 45 | ≥ 200 | ≥ 200 |  | 10.51 | ≥ 200 | ≥ 200 | 100 |  | ≥ 200 |  | 10.32 | ≥ 200 | 10.66 | ≥ 200 | 10.24 | ≥ 200 |  |
| CC(C)C[C@H](NC(=O)[C@H](C)NC(=O)[C@H](C)NC(=O)[C@@H](NC(=O)[C@H](CO)NC(=O)[C@H](CC(C)C)NC(=O)[C@H](CCC(=O)O)NC(=O)[C@H](CO)NC(=O)[C@H](C)NC(=O)CCCCCCCCCCCCC(=O)O)[C@@H](C)O)C(=O)NCC(=O)N[C@@H](CCCNC(=N)N)C(=O)N[C@@H](CC(C)C)C(=O)N[C@@H](CO)C(=O)N[C@@H](C)C(=O)N[C@@H](CCC(=O)O)C(=O)N[C@@H](CC(C)C)C(=O)N[C@@H](Cc1cnc[nH]1)C(=O)N[C@@H](CCC(=O)O)C(=O)N[C@@H](CC(C)C)C(=O)N[C@@H](C)C(=O)N[C@H](C(=O)N[C@@H](CC(C)C)C(=O)N1CCC[C@H]1C(=O)N[C@@H](CCCNC(=N)N)C(=O)N[C@H](C(=O)N[C@@H](CCC(=O)O)C(=O)N[C@H](C(=O)NCC(=O)N[C@@H](CO)C(=O)NCC(=O)N[C@@H](CO)C(=O)N1CCC[C@H]1C(N)=O)[C@@H](C)O)[C@@H](C)O)[C@@H](C)O ({C14 diacid}-ASELSTAALGRLSAELHELATLPRTETGSGSP-NH2) |  |  | ≥ 200 | ≥ 200 |  | 11.30 | ≥ 200 | ≥ 200 |  |  | ≥ 200 |  | 11.40 | ≥ 200 | 11.15 | ≥ 200 | 11.22 | ≥ 200 | 9.85 |
| CC(C)C[C@H](NC(=O)CNC(=O)[C@H](CO)NC(=O)[C@H](C)NC(=O)CC[C@H](NC(=O)CCCCCCCCCCCCCCCCCCC(=O)O)C(=O)O)C(=O)N[C@@H](CO)C(=O)N[C@H](C(=O)N[C@@H](CC(C)C)C(=O)N[C@H](C(=O)N[C@@H](CC(C)C)C(=O)NCC(=O)N[C@@H](CCCNC(=N)N)C(=O)N[C@@H](CC(C)C)C(=O)N[C@@H](CO)C(=O)N[C@@H](CCC(N)=O)C(=O)N[C@@H](CCC(=O)O)C(=O)N[C@@H](CC(C)C)C(=O)N[C@@H](Cc1cnc[nH]1)C(=O)N[C@@H](CCC(=O)O)C(=O)N[C@@H](CC(C)C)C(=O)N[C@@H](CCC(N)=O)C(=O)N[C@H](C(=O)N[C@@H](Cc1ccc(O)cc1)C(=O)N1CCC[C@H]1C(=O)N[C@@H](CCCNC(=N)N)C(=O)N[C@H](C(=O)N[C@@H](CCC(=O)O)C(=O)N[C@H](C(=O)NCC(=O)N[C@@H](CO)C(=O)N[C@@H](CCC(N)=O)C(=O)N[C@H](C(=O)N[C@@H](Cc1ccc(O)cc1)C(N)=O)[C@@H](C)O)[C@@H](C)O)[C@@H](C)O)[C@@H](C)O)C(C)C)[C@@H](C)O ({C20 diacid-γGlu}-ASGLSTLVLGRLSQELHELQTYPRTETGSQTY-NH2) | 10.04 | 8.4 | ≥ 200 |  | 34 | 10.40 | ≥ 200 | ≥ 200 | 90 | 24 | ≥ 200 | 8.83 | 9.85 |  | 10.28 | ≥ 200 |  |  |  |
